Reference: US20040176313A1, “Inhibitors of Src kinase for use in alzheimer's disease” (Aventis Pharma S.A., priority 2002, published 2004)

What was measured:
[1] = system: Aβ secretion, CHO cells stably overexpressing APP751; assay: Aβ secretion from CHO cells stably overexpressing APP751 treated with PP2 or PP3 (FIG. 6); type: cell-based; settings: PP2 5 and 20 μM, PP3 20 μM (highest concentration), time points 1, 3 and 12 hours
Protocol: Therefore, a line of CHO cells stably overexpressing APP751 form was used, which secretes discrete levels of Aβ. If secretion involves endogenous Src activity, PP2 should be able to inhibit production of Aβ also in this cellular system.
(§1) Human embryonic kidney cells (HEK293) were cultured in Dulbecco's modified minimal medium supplemented with 10% fetal calf serum at 37° C. in a 5% CO2 atmosphere. For transfection, cells were grown for 16 hours in antibiotic-free medium, and transfected with Lipofectamine 2000 (Invitrogen) according to manufacturer's instructions. The total amount of DNA was maintained constant by addition of empty vector DNA. 48 hours after transfection, culture medium were recovered, while cells were harvested in ice-cold phosphate buffer saline (PBS) and gently lysed in lysis buffer (50 mM Tris/HCl, pH 7.5, 150 mM NaCl, 0.5% Triton X-100, 10% glycerol, 50 mM NaF, 1mM Na vanadate), in the presence of a protease inhibitor cocktail (Complete, EDTA-free, Roche). The extracts were clarified by centrifugation at 16,000×g at 4° C., and the protein concentration determined by the Bio-Rad protein assay according to manufacturer's instructions. […] Radioactive samples were resolved on 10% SDS-PAGE and quantitated with a Storm 840 phosphorimager (Amersham Pharmacia Biotech). […]

[2] = system: Aβ secretion, HEK293 cells transfected with APP695 and SrcYF; assay: Aβ accumulation in culture medium of HEK293 cells co-transfected with APP695 and active Src (SrcYF), sandwich ELISA (FIG. 5); type: cell-based, Human; settings: exposure for 48 hours to 1, 5 and 20 μM PP2 or PP3, sandwich ELISA on culture medium
Protocol: as §1, with “48 hours after transfection, culture medium were recovered, while cells were harvested in ice-cold phosphate buffer saline (PBS) and gently lysed in lysis buffer (50 mM Tris/HCl, pH 7.5, 150 mM NaCl, 0.5% Triton X-100, 10% glycerol, 50 mM NaF, 1mM Na vanadate), in the presence of a protease inhibitor cocktail (Complete, EDTA-free, Roche).” left out
HEK293 cells were transfected with APP695 expression vectors. […] HEK293 cells were co-transfected with APP and either empty vector, or active Abl (Abl-PP), or active Src (SrcYF) kinases, and the secretion of APPsec and β were evaluated. […] Both medium and protein extracts have been used in immunoprecipitation experiments for quantitative dosage of radiolabeled APPsec and holo-APP, respectively. […]

| Structure (SMILES) | amount of Aβ [1] | secreted Aβ [2] |
| --- | --- | --- |
| Nc1ncnc2c1cnn2-c1ccccc1 [PP3] | has no effect | do not affect Aβ rise by SrcYF transfection |
| CC(C)(C)n1nc(-c2ccc(Cl)cc2)c2c(N)ncnc21 [PP2, 4-amino-5-(4-chlorophenyl)-7-(t-butyl)pyrazolo[3,4d]pyrimidine] | reduces in a dose-dependent manner the amount of Aβ | dose-dependent decrease of secreted AP |
